Experimental data taken from US20080107603A1, “Neuroprotectant methods, compositions, and screening methods thereof” (priority 2002, published 2008).

Assays:
[1] = Rat; cited from earlier work
[2] = test system: striatal dopamine content; experiment: 6-OHDA lesion rat model, striatal dopamine content; format: in vivo, Sprague-Dawley rats; conditions: treatment before 6-OHDA lesioning
Procedure: Male Sprague-Dawley rats with starting weights 225±25 g, were housed in groups of 3 with free access to food and water, under controlled temperature (21° C.±1° C.) and a 12 hour light/dark cycle (light on 07.00 hrs). All scientific procedures were carried out with the approval of the Home Office, U.K. Rats were administered, by gavage, 70 mg/kg of ergothioneine or vehicle (sterile distilled water) daily for 4 days (n=6 per group). On the 4th day, 1 hr after L-ergothioneine or vehicle administration, rats were anaesthetized with small animal Immobilon® (0.04 ml/rat, i.m.), and 6-OHDA (5 μg dissolved in 4 μl of 0.1% ascorbic acid/saline solution) was injected onto median forebrain bundle (stereotactic co-ordinates: 2.2 mm anterior, +1.5 lateral from bregma and −7.9 ventral to dura with ear bars 5 mm below incisor bars (Datla et al. (2001) Neuroreport 12:3871, which reference is herein specifically incorporated by reference in its entirety). One week after 6-OHDA lesioning, rats were killed by cervical dislocation and the brains were dissected out immediately. A coronal section was made at the level of hypothalamus and fore brain, and hind brain parts were separated. […] Images of TH positive cells (TH+ cells) were captured by a Xillix CCD digital camera and counted automatically (Image Proplus, Datacell, U.K.). […]

C[N+](C)(C)[C@@H](Cc1c[nH]c(=S)[nH]1)C(=O)[O-] [L-ergothioneine, 2-mercaptohistidine trimethylbetaine]
L-Ergothioneine Concentration (mg/100 ml blood) [1]: 1-6 mg/100 ml blood | loss of striatal dopamine content [2]: markedly reduced the loss
